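How tested: cells in 96-well plates exposed to compound for 48 hours at five concentrations. GI50 is the concentration that inhibits growth by half. Definition used: TGI = concentration required for complete inhibition of growth.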
Key:
Experiment in all cases: inhibition of tumour cell growth, NCI panel, 48 h
SF-539 CNS = test system: SF-539 CNS
HOP-92 NSCLC = test system: HOP-92 NSCLC
SF-268 CNS = test system: SF-268 CNS
SR leukemia = test system: SR leukemia
NCI-H460 lung = test system: NCI-H460 lung
M14 melanoma = test system: M14 melanoma
PC-3 prostate = test system: PC-3 prostate
RXF 393 renal = test system: RXF 393 renal
KM12 colon = test system: KM12 colon
CAKI-1 renal = test system: CAKI-1 renal

| Compound | GI50 (SF-539 CNS) | TGI (SF-539 CNS) | GI50 (HOP-92 NSCLC) | TGI (HOP-92 NSCLC) | GI50 (SF-268 CNS) | TGI (SF-268 CNS) | GI50 (SR leukemia) | TGI (SR leukemia) | GI50 (NCI-H460 lung) | TGI (NCI-H460 lung) | GI50 (M14 melanoma) | TGI (M14 melanoma) | GI50 (PC-3 prostate) | TGI (PC-3 prostate) | GI50 (RXF 393 renal) | TGI (RXF 393 renal) | GI50 (KM12 colon) | TGI (KM12 colon) | GI50 (CAKI-1 renal) | TGI (CAKI-1 renal) |
| --- | --- | --- | --- | --- | --- | --- | --- | --- | --- | --- | --- | --- | --- | --- | --- | --- | --- | --- | --- | --- |
| COc1cc(Cl)cc(-c2nn(C(=O)NCCN3CCN(C)CC3)cc2-c2ccncc2)c1 | 2.84 µM | 22.6 µM | 2.83 µM | 26.2 µM | 7.35 µM | > 100 µM | 29.8 µM | > 100 µM | 21 µM | 60.4 µM | 9.46 µM | 29.3 µM | 19.5 µM | > 100 µM | 2.41 µM | 18.1 µM | 20.5 µM | 79.6 µM | 4.35 µM | 25.3 µM |
| O=[N+]([O-])c1ccc(-c2nc(N(CCO)CCO)c3ccccc3n2)o1 | 0.272 µM | 1.24 µM | 0.247 µM | 0.831 µM | 0.211 µM | 1.52 µM | 0.0881 µM |  | 0.0537 µM | 0.38 µM | 0.143 µM | 0.316 µM | 0.293 µM | 2.84 µM | 0.159 µM | 0.34 µM | 0.216 µM | 0.862 µM | 0.282 µM | 3.33 µM |
| C=C(Cl)COC(=O)Nc1cccc(Cl)c1 |  | > 100 µM |  | 64.9 µM |  | > 100 µM |  | > 100 µM |  | > 100 µM |  | > 100 µM |  | 84.6 µM |  | 77.6 µM |  | > 100 µM |  | > 100 µM |
| CN(NC(=O)CC(=O)NN(C)C(=S)c1ccccc1)C(=S)c1ccccc1 |  | > 100 µM |  | > 100 µM | 67.2 µM | > 100 µM |  | > 100 µM | 0.0843 µM | > 100 µM | > 73.7 µM | > 100 µM | 51.5 µM | > 100 µM | > 61.1 µM | > 100 µM | 65.1 µM | > 100 µM | > 55.7 µM | > 100 µM |
| CC1(C)COCN1COC1CCCCC1 |  | > 100 µM |  | > 100 µM |  | > 100 µM |  | 44 µM |  | > 100 µM |  | > 100 µM |  | > 100 µM |  | > 100 µM |  | > 100 µM |  | > 100 µM |
| Nc1ccc(C(=O)c2ccc(N)c(Br)c2)cc1Br | 0.296 µM | 3.16 µM | 0.299 µM | 5.9 µM | 0.747 µM | > 53.1 µM | 0.253 µM | 1.35 µM | 0.346 µM | 5.76 µM | 0.32 µM | 72.5 µM | 0.392 µM | > 63.4 µM | 0.279 µM | 0.882 µM | 0.409 µM | 12.8 µM | 0.299 µM | 14.7 µM |
| COc1ccc(C2=NN(C(=O)COc3ccc(Cl)cc3)C(O)(c3cc(F)c(Cl)cc3Cl)C2)cc1OC (stereo unspecified) | 1.81 µM | 3.55 µM | 2.31 µM | 13.2 µM | 3.91 µM | 17.4 µM | 1.97 µM | 6.89 µM | 8.87 µM | 24.3 µM | 2.18 µM | 6.5 µM | 5.49 µM | 13.2 µM | 0.474 µM | 1.48 µM | 4.88 µM | 16.2 µM | 1.68 µM | 3.6 µM |
| N#CC1=C(N)NC(=S)NC12Nc1ccccc1O2 (stereo unspecified) | 45.8 µM | > 100 µM | > 100 µM | > 100 µM | 51.2 µM | > 100 µM | 0.597 µM | > 100 µM | 65.5 µM | > 100 µM | 26 µM | > 100 µM | 28.6 µM | > 100 µM | > 100 µM | > 100 µM | 27.1 µM | > 100 µM | 39.1 µM | > 100 µM |
| Cc1cc(C)c(O)c(CNCCCCCCNCc2cc(C)cc(C)c2O)c1 | 1.62 µM | 3.17 µM | 1.25 µM | 4.01 µM | 1.61 µM | 3.36 µM | 1.34 µM | 3.84 µM | 1.89 µM | 3.58 µM | 1.72 µM | 3.59 µM | 1.99 µM | 4.28 µM | 1.59 µM | 3.08 µM | 1.82 µM | 3.51 µM | 1.97 µM | 4.49 µM |
| COc1c(C)c2c(c(O)c1C/C=C(\C)CCC(=O)OCCN1CCOCC1)C(=O)OC2 | 0.375 µM | > 100 µM | 5.18 µM | > 100 µM | 0.532 µM | > 100 µM | 0.24 µM | 32.6 µM | 0.0823 µM | > 100 µM | 0.29 µM | > 100 µM | 0.562 µM | > 100 µM | 0.774 µM | > 100 µM | 0.317 µM | > 100 µM | 0.299 µM | > 100 µM |
| CC1(C)OC[C@@H]([C@@]2(CO[Si](C)(C)C(C)(C)C)CC=CC(=O)O2)O1 | 20.6 µM | 42.4 µM | 14.1 µM | 43.4 µM | 29 µM | 89.2 µM | 19 µM | 59.9 µM | 26.6 µM | > 100 µM | 20.9 µM | 50.7 µM | 19.6 µM | 74.2 µM | 23.6 µM | 56.3 µM | 31.1 µM | > 100 µM | 12.2 µM | 57.7 µM |
| Cc1cccc(C)c1NC(=O)/C(Cl)=C(/Cl)C(=O)O |  | 53.9 µM |  | 30.3 µM |  | 32.6 µM |  | > 57.1 µM |  | > 69.9 µM |  | 12.6 µM |  | 50.4 µM |  | 33.9 µM |  | 23 µM |  | 15.1 µM |

From PubChem BioAssay (NCI)
